Reference: patent US8686048B2, “Immunomodulator and anti-inflammatory compounds” (Rhizen Pharmaceuticals SA, priority 2010, dated 2014)

Legend:
h-DHODH = biological target: T1, h-DHODH (Homo sapiens, UniProt Q02127); experiment: Dihydro-orotate dehydrogenase inhibition assay (U937 membrane preparations, DCIP reduction); format: biochemical; details: U937 membrane preparation
T1 construct: endogenous in cells; host or cells: U937 cells (membrane fraction, solubilised with 1% octyl glucoside)
How it was run: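 Detergent (1% octyl glucoside) extract of U937 cell membranes; dihydro-orotate-driven DCIP reduction followed as absorbance change at 600 nm after 4 h at 37° C. IC50 derived from percent inhibition of […].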

IL-17 = experiment: Inhibition of IL-17 release from mouse splenocytes (PMA + ionomycin, ELISA); format: cell-based, Balb/c mice; details: Splenocyte, 3 h
How it was run: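 Balb/c splenocytes (1×10^6 cells/ml, RPMI) were pretreated with inhibitor for 15 min, then stimulated with 10 ng/ml PMA plus 1 μM ionomycin. Supernatant IL-17 was measured by ELISA after 3 h. IC50 was derived from percent inhibition relative to control.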

[1] = Single dose oral hepatotoxicity assay; format: in vivo, BALB/cJ mice; details: serum, 24 hr after 100 mg/kg po single dose, mice
Protocol: 5. Single Dose Oral Hepatotoxicity Assay:
BALB/cJ (n=4 or 5/sex) mice aged 8 to 10 weeks, with weights ranging from 18 to 25 g were used. They were housed under conditions of controlled temperature and humidity and a 12-h light/dark cycle. They were given continuous access to bottled spring water and fed a standard chow at ad libitum. The mice were allowed to acclimate for 1 week before use. On the day of experiment mice were fasted overnight for 12 h and administered with test item formulation (100 mg/kg·b·wt/po) or vehicle (10 ml/kg·b·wt/po) by oral route and food was given 4 hr after test item administration. After 24 hr post administration blood samples were collected from orbital sinus of all the animals and serum was separated to assess the hepatotoxicity. Biochemical evaluation of liver function was determined by measuring serum enzyme activities of alanine aminotransferase (ALT) and aspartate aminotransferase (AST) using commercially available kits from Sigma (St. Louis, Mo.).

PBMC = experiment: Inhibition of PHA induced PBMC proliferation (MTT); format: cell-based; details: Homo sapiens, 48 h
Protocol: a. Inhibition of PHA Induced PBMC Proliferation:
PBMC from freshly collected HWB was isolated by density gradient using Histopaque and seeded in a 96-well plate. Wells were incubated with desired concentrations of the inhibitor for 15 min. Proliferation was induced by the addition of 2 μM Phytohemagglutinin at 37° C. in an atmosphere containing […]. Viability was determined after 48 h using an 3-(4,5-Dimethylthiazol-2-yl)-2,5-diphenyltetrazolium bromide (MTT) assay. Data were analyzed using GraphPad Prism. percent inhibition and/or GI50 values for each compound were determined based on the percent inhibition due to the test compound compared to the control.

CD4+ cell [2] = experiment: Inhibition of PHA induced CD4+ cell proliferation in human whole blood; format: cell-based; details: 48 h, flow cytometry
Protocol: c. Inhibition of PHA Induced CD4+ Cell Proliferation in Human Whole Blood:
(§1) HWB or were treated with desired concentration of inhibitor and induced with 5 μM PHA. % CD4+ cell viability was determined after 48 h by flow cytometry. Data were analyzed using GraphPad Prism. Percent inhibition and IC50 values for each compound were determined based on the percent inhibition due to the test compound compared to the control.

CD4+ cell [3] = experiment: Inhibition of PHA induced CD4+ cell proliferation in PBMC; format: cell-based; details: Homo sapiens, isolated PBMC, 48 h, flow cytometry
Protocol: d. Inhibition of PHA Induced CD4+ Cell Proliferation in PBMC:
as §1, with “Isolated PBMC” for “HWB or”, “Prism.” for “Prism. Percent inhibition and”

[4] = patients; cited from earlier work
HIV = details: at a concentration that can be obtained with conventional dosing; cited from earlier work

T1 sequence (Q02127 whole entry): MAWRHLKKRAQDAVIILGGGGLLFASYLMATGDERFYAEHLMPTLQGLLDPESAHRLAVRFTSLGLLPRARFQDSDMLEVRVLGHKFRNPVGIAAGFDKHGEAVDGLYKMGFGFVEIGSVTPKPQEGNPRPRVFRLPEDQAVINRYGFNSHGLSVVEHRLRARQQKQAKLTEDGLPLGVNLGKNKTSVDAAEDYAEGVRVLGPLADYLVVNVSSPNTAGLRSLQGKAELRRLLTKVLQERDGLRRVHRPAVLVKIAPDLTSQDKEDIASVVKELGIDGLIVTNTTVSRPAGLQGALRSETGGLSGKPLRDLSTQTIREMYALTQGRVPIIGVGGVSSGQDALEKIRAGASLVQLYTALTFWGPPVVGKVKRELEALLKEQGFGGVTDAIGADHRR

| SMILES | inhibition at 1 µM (h-DHODH; 1 uM) | IC50 (h-DHODH) | melting point | inhibition at 0.3 µM (h-DHODH; compound tested at 0.3 uM (footnote *)) | IC50 (IL-17) | h-DHODH % inhibition 1 uM (h-DHODH; 1 uM) | inhibition at 10 µM (IL-17) | ALT [1] | AST [1] | inhibition at 10 µM (PBMC) | inhibition at 1 µM (CD4+ cell [2]) | inhibition at 1 µM (CD4+ cell [3]) | half-life time [4] | reduction of HIV replication (HIV) |
| --- | --- | --- | --- | --- | --- | --- | --- | --- | --- | --- | --- | --- | --- | --- |
| CCCCOc1cccc(-c2cc(F)c(NC(=O)c3ccccc3C(=O)O)c(F)c2)c1 [Example 35, 2-(3′-Butoxy-3,5-difluorobiphenyl-4-ylcarbamoyl)benzoic acid] | 86.5% | 11.9 nM | 119.3 to 123.3 °C | – | – | – | 7.76% | 108.3 U/L | 172 U/L | – | – | – | – | – |
| CC(C)COc1cccc(-c2cc(F)c(NC(=O)c3ccccc3C(=O)O)c(Cl)c2)c1 [Example 31, 2-(3-Chloro-5-fluoro-3′-isobutoxybiphenyl-4-ylcarbamoyl)benzoic acid] | 73.5% | 44.6 nM | 202 to 205.5 °C | – | – | – | 21.1% | 65.1 U/L | 161.4 U/L | – | – | – | – | – |
| CCOc1cccc(-c2ccc(NC(=O)c3ccccc3C(=O)O)cc2)c1 [Example 70, 2-(3′-ethoxybiphenyl-4-ylcarbamoyl)benzoic acid] | 14% | – | – | – | 9110 nM | – | 48.4% | 84 U/L | 210.4 U/L | – | – | – | – | – |
| Cc1oncc1C(=O)Nc1ccc(C(F)(F)F)cc1 [leflunomide, Leflunomide] | – | – | – | – | – | – | – | – | – | – | – | – | approximately 2 weeks | about 75% |

More lines, main results first:

| inhibition at 1 µM (h-DHODH; 1 uM) | IC50 (h-DHODH) | melting point | inhibition at 0.3 µM (h-DHODH; compound tested at 0.3 uM (footnote *)) | IC50 (IL-17) | h-DHODH % inhibition 1 uM (h-DHODH; 1 uM) | SMILES | inhibition at 10 µM (IL-17) | ALT [1] | AST [1] | inhibition at 10 µM (PBMC) | inhibition at 1 µM (CD4+ cell [2]) | inhibition at 1 µM (CD4+ cell [3]) | half-life time [4] | reduction of HIV replication (HIV) |
| --- | --- | --- | --- | --- | --- | --- | --- | --- | --- | --- | --- | --- | --- | --- |
| 82.2% | 44.6 nM | 144 to 148 °C | – | – | – | CCCOc1cccc(-c2cc(F)c(NC(=O)c3ccccc3C(=O)O)c(Cl)c2)c1 [Example 19, 2-(3-Chloro-5-fluoro-3′-propoxybiphenyl-4-ylcarbamoyl)benzoic acid] | 19% | 87.9 U/L | 126.5 U/L | – | – | – | – | – |
| – | 1.52 nM | 157.9 to 160.9 °C | 100% | 32900 nM | – | CCc1c[nH]c2ccc(-c3cc(F)c(NC(=O)c4ccccc4C(=O)O)c(F)c3)cc12 [Example 75, 2-[4-(3-ethyl-1H-indol-5-yl)-2,6-difluorophenylcarbamoyl]benzoic acid] | 29.4% | 93.9 U/L | 210.8 U/L | > 70% | > 65% | > 90% | – | – |
| 76.9% | 24 nM | 122 to 126 °C | – | – | – | O=C(O)c1ccccc1C(=O)Nc1c(F)cc(-c2cccc(OC3CCCC3)c2)cc1Cl [Example 42, 2-(3-Chloro-3′-(cyclopentyloxy)-5-fluorobiphenyl-4-ylcarbamoyl)benzoic acid] | 22.3% | 113 U/L | 189.6 U/L | > 70% | – | – | – | – |
| – | 205 nM | 148.2 to 151.4 °C | – | – | 64.47% | O=C(O)c1ccccc1C(=O)Nc1c(F)cc(-c2cccc(OC(F)(F)F)c2)cc1F [Example 12, 2-[3,5-Difluoro-3′-(trifluoromethoxy)biphenyl-4-ylcarbamoyl]benzoic acid] | 2.96% | – | – | – | – | – | – | – |
| 29.4% | – | 178 to 182 °C | – | – | – | CCc1cccc(-c2ccc(NC(=O)c3ccccc3C(=O)O)cc2)c1 [Example 90, 2-(3′-ethylbiphenyl-4-ylcarbamoyl)benzoic acid] | 22.4% | – | – | – | – | – | – | – |
| 52.2% | – | 260 to 265 °C | – | – | – | CCOc1cccc(-c2cc(F)c(NC(=O)c3cc(Cl)c(Cl)cc3C(=O)O)c(Cl)c2)c1 [Example 14, 4,5-Dichloro-2-(3-chloro-3′-ethoxy-5-fluorobiphenyl-4-ylcarbamoyl)benzoic acid] | 13.5% | – | – | – | – | – | – | – |
